Values joined by “and” are separate entries in the source; they are usually repeats but may differ in a detail not shown here. Identical values can stand only once. “Also recorded” adds a separate entry of the source. Like-named read-outs stand apart in the source and are kept apart here.
How the values were obtained:
[1] = test system: HHD-transfected RMA-S cells loaded with relevant peptide; assay: CTL response of HHD mice injected s.c. with tumor epitopic peptide in IFA (51Cr-release assay); format: in vivo; conditions: for hierarchy of CTL inducers: peptide alone in IFA, by number of responding mice and level of specific lysis; for R/T (responder versus tested mice) / lysis in % (maximal lysis for each responder mouse): peptide s.c. in IFA; for R/T (responder versus tested mice): no helper, responder = at least 10% specific lysis; for lysis in % (maximal lysis for each responder mouse): usually 60:1 E/T ratio
[2] = test system: HHD-transfected RMA-S cells loaded with relevant peptide; assay: CTL response of A2A2Kb mice injected s.c. with tumor epitopic peptide in IFA (51Cr-release assay); format: in vivo; conditions: for R/T (responder versus tested mice): responder = at least 10% specific lysis
[3] = test system: HHD-transfected RMA-S target cells loaded with relevant peptide; assay: CTL response of HHD mice co-immunized in IFA with tumor peptide and HBVc.128 helper peptide; format: in vivo; conditions: for R/T (responder versus tested mice): 50 μg CD8 peptide + 140 μg HBVc.128 helper in IFA; for CTL response with helper peptide (in words): co-injected with HBVc.128 helper, compared with peptide alone
[4] = test system: peptide-loaded HHD-transfected RMA-S cells and HHD-transfected HeLa cells expressing the polyepitope; assay: Melanoma polyepitopic pCMV-B10 DNA immunization of HHD mice, CTL assay; format: in vivo; conditions: pCMV-B10 DNA with 10 melanoma epitopes, FIG. 1C and D
[5] = test system: peptide-pulsed HHD-transfected RMAS cells; format: in vivo, HHD mice; conditions: for Maximum specific lysis (%): each responder mouse
[6] = test system: peptide-pulsed HHD-transfected RMAS cells; format: in vivo, HHD mice
HLA-A2.1 molecules = target: T1, HLA-A2.1 molecules (Homo sapiens, UniProt P04439, D140Y/D185E/D98H/E176V/E277Q/G131W/G231S/I119V/I121R/I166T/I218V/L300P/L318F/N151K/N90K/P208A/P217A/Q86G/Q94H/R138H/R169H/T345S); format: binding
T1 construct: Using TAP-deficient, HLA-A2.1^+ T2 cells, we evaluated these parameters in an immunofluorescence assay; endogenous in cells; host or cells: T2 cells (TAP-deficient, HLA-A2.1+)

[7] = test system: HHD-transfected RMAS cells loaded with relevant peptide; assay: CTL response of HHD mice immunized with peptide-loaded dendritic cells; format: in vivo
[8] = test system: HHD-transfected RMAS cells loaded with relevant peptide; assay: CTL response of HHD mice immunized with monoepitopic pCMV-B10 DNA; format: in vivo; conditions: pCMV-B10 DNA encoding the epitope; individual mice 1-6
[9] = test system: HHD-transfected RMAS cells loaded with relevant peptide; assay: CTL response of HHD mice immunized with lipopeptides; format: in vivo; conditions: lipopeptide of the epitope; individual mice 1-6
[10] = by number of responder mice and strength of responses, peptide in IFA
[11] = without helper peptide, 100 μg peptide s.c. in IFA
[12] = with helper peptide, 50 μg CD8 + 140 μg HBV core T13L in IFA
[13] = wild-type HIV 1 peptides, reference I9V, T2 cells

ITDQVPFSV [gp100.209]
hierarchy of CTL inducers [1]: weak
R/T (responder versus tested mice) [1]: 1/6
lysis in % (maximal lysis for each responder mouse) [1]: (23) %
R/T (responder versus tested mice) [2]: 0/6
R/T (responder versus tested mice) [3]: 3/6
CTL response against the epitope after melanoma polyepitope DNA immunization (in words) [4]: elicited CTL responses depending on mice; also recorded: No specific lysis

AFHHVAREL [A9L, HIV 1 NEF (188-196) CD8 epitopic peptide]
classification as immunogen [5, 10]: inefficient
Responder/tested mice [5, 11]: 0/6
Responder/tested mice [6, 12]: 0/6

YMDGTMSQV [Tyrosinase.368-D]
hierarchy of CTL inducers [1]: weak
R/T (responder versus tested mice) [1]: 1/6
lysis in % (maximal lysis for each responder mouse) [1]: (10) %
R/T (responder versus tested mice) [2]: 0/6
RA (relative affinity) (HLA-A2.1 molecules): 2.27
R/T (responder versus tested mice) [3]: 2/6
lysis in % (highest specific lysis) ([7]; individual mice 1-6, usually 60/1 E/T): 12% and 20% and 8% and 3% and 7% and 23%
lysis in % after a second in vitro restimulation ([7]; second restimulation with 10% TCGF, individual mice 1-6): (64) %; also recorded: (92) %; also recorded: (71) %; also recorded: (68) %; also recorded: (56) %
lysis in % (highest specific lysis) [8]: 57% and 55% and 28% (2×) and 58% and 56%
lysis in % (highest specific lysis) [9]: 0% (3×) and 10% and 1% and 4%
CTL response against the epitope after melanoma polyepitope DNA immunization (in words) [4]: elicited CTL responses depending on mice

TLNAWVKVV [T9V]
classification as immunogen [5, 10]: intermediate
Responder/tested mice [5, 11]: 2/6
Responder/tested mice [6, 12]: 3/5

FLWGPRALV [MAGE-3.271]
hierarchy of CTL inducers [1]: weak
R/T (responder versus tested mice) [1]: 1/6
lysis in % (maximal lysis for each responder mouse) [1]: (33) %
R/T (responder versus tested mice) [2]: 0/6
R/T (responder versus tested mice) [3]: 6/6
CTL response with helper peptide (in words) [3]: good CTL responses in a large proportion of mice
CTL response against the epitope after melanoma polyepitope DNA immunization (in words) [4]: No specific lysis

MLLAVLYCL [Tyrosinase.1, Tyrosinase 1-9 epitopic peptide]
hierarchy of CTL inducers [1]: inefficient
R/T (responder versus tested mice) [1]: 0/10
R/T (responder versus tested mice) [2]: 0/6
RA (relative affinity) (HLA-A2.1 molecules): >60
R/T (responder versus tested mice) [3]: 5/6
CTL response with helper peptide (in words) [3]: good CTL responses in a large proportion of mice
CTL response against the epitope after melanoma polyepitope DNA immunization (in words) [4]: did not elicit CTL responses; also recorded: No specific lysis

LLGRNSFEV [p53.264]
hierarchy of CTL inducers [1]: inefficient
R/T (responder versus tested mice) [1]: 0/7
R/T (responder versus tested mice) [2]: 0/6
R/T (responder versus tested mice) [3]: 2/3

RLRDLLLIV [R9V, HIV 1 ENV gp41 (260-268) CD8 epitopic peptide]
RA (relative affinity) (HLA-A2.1 molecules): >100/ND
classification as immunogen [5, 10]: intermediate
Responder/tested mice [5, 11]: 1/6
Maximum specific lysis (%) ([5]; without helper peptide): 14%
Responder/tested mice [6, 12]: 0/6

PLTFGWCFKL [P10L, HIV 1 NEF (134-143) CD8 epitopic peptide]
RA (relative affinity) (HLA-A2.1 molecules; [13]): >100/ND
classification as immunogen [5, 10]: inefficient
Responder/tested mice [5, 11]: 0/6
Responder/tested mice [6, 12]: 0/6

ILTVILGVL [Melan-A/MART-1.32, Melan-A/MART-1 32-40 epitopic peptide]
hierarchy of CTL inducers [1]: inefficient
R/T (responder versus tested mice) [1]: 0/6
R/T (responder versus tested mice) [2]: 0/6
RA (relative affinity) (HLA-A2.1 molecules): 21.1
R/T (responder versus tested mice) [3]: 1/6
lysis in % ([3]; co-injected with HBVc.128 helper peptide in IFA, each responder mouse): (10) %
CTL response against the epitope after melanoma polyepitope DNA immunization (in words) [4]: did not elicit CTL responses; also recorded: No specific lysis

RMPEAAPPV [p53.65, p53 65-73 epitopic peptide]
hierarchy of CTL inducers [1]: intermediate
R/T (responder versus tested mice) [1]: 4/6
R/T (responder versus tested mice) [2]: 0/6
RA (relative affinity) (HLA-A2.1 molecules): 0.91
R/T (responder versus tested mice) [3]: 5/6
CTL response with helper peptide (in words) [3]: stronger responses in a larger proportion of mice

VLYRYGSFSV [gp100.476, gp100 476-485 human melanoma epitopic peptide]
hierarchy of CTL inducers [1]: weak
R/T (responder versus tested mice) [1]: 2/6
R/T (responder versus tested mice) [2]: 1/6
lysis in % (maximal lysis for each responder mouse) ([2]; usually 60:1 E/T ratio): (29) %
RA (relative affinity) (HLA-A2.1 molecules): 10
R/T (responder versus tested mice) [3]: 6/7
CTL response against the epitope after melanoma polyepitope DNA immunization (in words) [4]: did not elicit CTL responses

KTWGQYWQV [gp100.154]
hierarchy of CTL inducers [1]: strong
R/T (responder versus tested mice) [1]: 4/6
R/T (responder versus tested mice) [2]: 5/6
R/T (responder versus tested mice) [3]: 9/11
CTL response with helper peptide (in words) [3]: stronger responses in a larger proportion of mice
CTL response against the epitope after melanoma polyepitope DNA immunization (in words) [4]: Strong responses

ESELVNQIIEQ [E11Q]
classification as immunogen ([5]; mouse, in vivo): inefficient
Responder/tested mice ([5]; mouse, in vivo, sc): 0/6
Responder/tested mice ([6]; mouse, in vivo): 0/6

TLGIVCPI [HPV E7.86, HPV16 E7 86-93 epitopic peptide]
hierarchy of CTL inducers [1]: inefficient
R/T (responder versus tested mice) [1]: 0/6
R/T (responder versus tested mice) [2]: 2/6
R/T (responder versus tested mice) [3]: 2/6

ILKEPVHGV [I9V]
classification as immunogen [5, 10]: strong
Responder/tested mice [5, 11]: 4/6
Responder/tested mice [6, 12]: 5/6

VIYQYMDDL [V9L, HIV 1 POL (334-342) CD8 epitopic peptide]
classification as immunogen [5, 10]: intermediate
Responder/tested mice [5, 11]: 1/6
Maximum specific lysis (%) ([5]; without helper peptide): 34%
Responder/tested mice [6, 12]: 1/6
Maximal specific lysis (%) ([6]; with helper peptide, each responder mouse): 57%

PLVKLWYQL [P9L, HIV 1 POL (576-584) CD8 epitopic peptide]
RA (relative affinity) (HLA-A2.1 molecules; [13]): >100/ND
classification as immunogen [5, 10]: inefficient
Responder/tested mice [5, 11]: 0/6
Responder/tested mice [6, 12]: 0/6

IISAVVGIL [Her2/neu.654, Her2/neu 654-662 epitopic peptide]
hierarchy of CTL inducers [1]: weak
R/T (responder versus tested mice) [1]: 1/6
lysis in % (maximal lysis for each responder mouse) [1]: (42) %
R/T (responder versus tested mice) [2]: 0/6
R/T (responder versus tested mice) [3]: 0/6

STPPPGTRV [p53.149, p53 149-157 epitopic peptide]
hierarchy of CTL inducers [1]: inefficient
R/T (responder versus tested mice) [1]: 0/6
R/T (responder versus tested mice) [2]: 0/6
R/T (responder versus tested mice) [3]: 3/6

LLWKGEGAV [L9V, HIV 1 POL (956-964) CD8 epitopic peptide]
classification as immunogen [5, 10]: intermediate
Responder/tested mice [5, 11]: 3/6

LLDGTATLRL [gp100.457]
hierarchy of CTL inducers [1]: inefficient
R/T (responder versus tested mice) [1]: 0/6
R/T (responder versus tested mice) [2]: 0/6
RA (relative affinity) (HLA-A2.1 molecules): 1.65
R/T (responder versus tested mice) [3]: 5/6
CTL response with helper peptide (in words) [3]: good CTL responses in a large proportion of mice
CTL response against the epitope after melanoma polyepitope DNA immunization (in words) [4]: Significant responses
